Values of other authors, collected in US11965206B2, “Method of dosing a patient with multiple drugs using adjusted phenotypes of CYP450 enzymes” (priority 2018, dated 2024).
Read-outs that look alike come from different tables or passages of the source.

Assays:
CYP450 enzyme 2C9 = CYP450 enzyme 2C9 (Homo sapiens, UniProt P11712); conditions: found in drug databases
CYP450 enzyme 2D6 = CYP450 enzyme 2D6 (Homo sapiens, UniProt P10635)
CYP450 enzyme 2C19 = CYP450 enzyme 2C19 (Homo sapiens, UniProt P33261); conditions: found in drug databases
CYP450 enzyme 3A4 = CYP450 enzyme 3A4 (Homo sapiens, UniProt P08684)
CYP450 enzyme 2B6 = target: T1, CYP450 enzyme 2B6 (Homo sapiens, UniProt P20813); conditions: found in drug databases
T1 sequence (P20813 1-491): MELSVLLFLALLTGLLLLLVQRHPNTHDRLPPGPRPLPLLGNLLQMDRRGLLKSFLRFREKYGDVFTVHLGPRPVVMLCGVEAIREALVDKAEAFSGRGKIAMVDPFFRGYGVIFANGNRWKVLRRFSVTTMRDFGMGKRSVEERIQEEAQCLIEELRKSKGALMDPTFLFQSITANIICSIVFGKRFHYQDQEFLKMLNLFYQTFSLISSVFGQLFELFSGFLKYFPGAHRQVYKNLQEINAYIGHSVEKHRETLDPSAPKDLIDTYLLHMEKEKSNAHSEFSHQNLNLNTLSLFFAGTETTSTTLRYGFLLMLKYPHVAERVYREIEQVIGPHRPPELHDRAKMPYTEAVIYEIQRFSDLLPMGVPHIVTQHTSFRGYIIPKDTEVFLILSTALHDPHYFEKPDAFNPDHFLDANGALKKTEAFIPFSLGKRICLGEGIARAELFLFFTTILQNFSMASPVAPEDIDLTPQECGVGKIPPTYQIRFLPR

Chain of CYP450 enzyme 2D6 (P10635 whole entry): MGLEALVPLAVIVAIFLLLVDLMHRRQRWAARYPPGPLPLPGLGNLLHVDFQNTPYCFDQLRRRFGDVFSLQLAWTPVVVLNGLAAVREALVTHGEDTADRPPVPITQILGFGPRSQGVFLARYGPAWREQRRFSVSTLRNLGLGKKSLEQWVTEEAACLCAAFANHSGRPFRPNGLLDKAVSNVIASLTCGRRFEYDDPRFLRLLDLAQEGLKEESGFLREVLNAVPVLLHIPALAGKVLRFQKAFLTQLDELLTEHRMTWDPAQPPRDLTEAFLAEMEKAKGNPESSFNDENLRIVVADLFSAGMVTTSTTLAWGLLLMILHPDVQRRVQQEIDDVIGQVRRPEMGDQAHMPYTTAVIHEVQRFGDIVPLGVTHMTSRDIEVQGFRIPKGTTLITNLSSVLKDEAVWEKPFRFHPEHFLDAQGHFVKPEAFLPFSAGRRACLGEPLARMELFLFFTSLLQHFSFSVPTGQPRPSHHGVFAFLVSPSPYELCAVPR
Chain of CYP450 enzyme 2C9 (P11712 whole entry): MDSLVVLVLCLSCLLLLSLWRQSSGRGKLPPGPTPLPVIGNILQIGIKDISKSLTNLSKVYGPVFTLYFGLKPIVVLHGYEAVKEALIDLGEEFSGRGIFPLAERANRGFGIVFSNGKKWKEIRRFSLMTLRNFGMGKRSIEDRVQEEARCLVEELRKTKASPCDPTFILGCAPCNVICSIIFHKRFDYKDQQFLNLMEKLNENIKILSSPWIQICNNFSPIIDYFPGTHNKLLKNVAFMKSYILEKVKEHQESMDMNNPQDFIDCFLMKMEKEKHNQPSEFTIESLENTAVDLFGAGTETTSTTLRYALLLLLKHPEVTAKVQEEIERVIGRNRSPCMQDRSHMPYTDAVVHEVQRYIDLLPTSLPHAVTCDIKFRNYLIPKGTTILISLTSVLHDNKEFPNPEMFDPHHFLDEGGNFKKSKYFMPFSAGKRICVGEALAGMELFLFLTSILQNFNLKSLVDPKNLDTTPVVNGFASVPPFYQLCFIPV
Chain of CYP450 enzyme 2C19 (P33261 whole entry): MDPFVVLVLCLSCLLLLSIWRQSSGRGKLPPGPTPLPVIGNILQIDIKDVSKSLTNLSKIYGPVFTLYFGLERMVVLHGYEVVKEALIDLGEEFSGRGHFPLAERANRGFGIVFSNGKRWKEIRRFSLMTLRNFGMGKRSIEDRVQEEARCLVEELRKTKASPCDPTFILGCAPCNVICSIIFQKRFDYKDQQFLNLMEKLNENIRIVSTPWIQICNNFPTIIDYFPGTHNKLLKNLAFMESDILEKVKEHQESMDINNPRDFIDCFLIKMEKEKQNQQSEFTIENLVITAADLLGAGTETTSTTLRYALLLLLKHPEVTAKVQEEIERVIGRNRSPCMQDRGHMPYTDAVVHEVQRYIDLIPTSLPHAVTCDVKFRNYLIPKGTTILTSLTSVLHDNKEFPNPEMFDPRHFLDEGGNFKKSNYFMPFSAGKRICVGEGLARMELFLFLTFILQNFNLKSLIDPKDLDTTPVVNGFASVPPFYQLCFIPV
Chain of CYP450 enzyme 3A4 (P08684 whole entry): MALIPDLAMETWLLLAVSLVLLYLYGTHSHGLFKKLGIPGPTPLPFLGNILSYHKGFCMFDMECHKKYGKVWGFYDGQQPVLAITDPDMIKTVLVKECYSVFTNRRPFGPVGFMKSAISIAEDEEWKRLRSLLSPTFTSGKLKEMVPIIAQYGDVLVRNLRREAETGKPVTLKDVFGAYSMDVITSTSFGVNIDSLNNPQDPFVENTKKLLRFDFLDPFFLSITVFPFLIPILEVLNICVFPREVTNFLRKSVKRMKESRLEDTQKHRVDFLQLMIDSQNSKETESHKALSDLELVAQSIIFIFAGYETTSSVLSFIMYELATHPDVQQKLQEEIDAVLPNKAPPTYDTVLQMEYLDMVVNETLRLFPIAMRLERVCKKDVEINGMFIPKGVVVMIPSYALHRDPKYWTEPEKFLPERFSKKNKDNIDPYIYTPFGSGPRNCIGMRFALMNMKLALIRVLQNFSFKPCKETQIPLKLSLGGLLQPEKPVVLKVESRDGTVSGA

| Compound | substrate for 2C9 (CYP450 enzyme 2C9) | substrate for 2D6 (CYP450 enzyme 2D6; found in drug databases) | strong, moderate or weak inhibitor of 2D6 (CYP450 enzyme 2D6; found in drug databases) | other results |
| --- | --- | --- | --- | --- |
| CNCCC(Oc1ccc(C(F)(F)F)cc1)c1ccccc1 (stereo not shown) [Prozac] | substrate | substrate | – | strong, moderate or weak inhibitor of 2C9 (CYP450 enzyme 2C9): moderate inhibitor |
| Fc1ccc([C@@H]2CCNC[C@H]2COc2ccc3c(c2)OCO3)cc1 [paroxetine] | – | – | – | substrate for 2D6 (CYP450 enzyme 2D6): substrate |
| Cc1nc2n(c(=O)c1CCN1CCC(c3noc4cc(F)ccc34)CC1)CCCC2 [Risperidone] | – | substrate | weak inhibitor | – |
| CCCC(CCC)C(=O)O [Depakote] | substrate | – | – | strong, moderate or weak inhibitor of 2C19 (CYP450 enzyme 2C19): weak inhibitor; strong, moderate or weak inhibitor of 2C9 (CYP450 enzyme 2C9): weak inhibitor; substrate for 2B6 (CYP450 enzyme 2B6): substrate |
| CCCCC1=NC2(CCCC2)C(=O)N1Cc1ccc(-c2ccccc2-c2nnn[nH]2)cc1 [Irbesartan] | substrate | – | – | – |
| O=C1CCc2ccc(OCCCCN3CCN(c4cccc(Cl)c4Cl)CC3)cc2N1 [Abilify] | – | substrate | – | – |
| O=C(CCCN1CCC(O)(c2ccc(Cl)cc2)CC1)c1ccc(F)cc1 [Haldol] | – | substrate | weak inhibitor | – |
| COCCc1ccc(OCC(O)CNC(C)C)cc1 (stereo not shown) [metoprolol] | – | substrate | – | – |

The next lines start with results.

| substrate for 2C9 (CYP450 enzyme 2C9) | substrate for 2D6 (CYP450 enzyme 2D6; found in drug databases) | strong, moderate or weak inhibitor of 2D6 (CYP450 enzyme 2D6; found in drug databases) | Compound | other results |
| --- | --- | --- | --- | --- |
| – | – | weak inhibitor | CN(C)CCC[C@@]1(c2ccc(F)cc2)OCc2cc(C#N)ccc21 [Lexapro] | substrate for 2C19 (CYP450 enzyme 2C19): substrate; substrate for 3A4 (CYP450 enzyme 3A4): substrate |
| – | – | weak inhibitor | COc1ccc([C@@H]2Sc3ccccc3N(CCN(C)C)C(=O)[C@@H]2OC(C)=O)cc1 [Diltiazem, diltiazem] | – |
